From PubChem BioAssay AID330 (DTP/NCI, 2004)
Where “and” joins values, the source holds several entries; their conditions need not be identical. Equal entries are not always repeated. Toxic doses and inconclusive results are not listed. How the source made its calls: active means survival T/C of 150% or more; inactive means T/C below 125% in these data.

System: P388 leukemia ip, CD2F1 mice, survival T/C
Test: NCI In Vivo Anticancer Drug Screen. Data for tumor model P388 Leukemia (intraperitoneal) in CD2F1 (CDF1) mice
Details: endpoint: median survival time, higher = longer survival
In short: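 Mice carrying the transplanted tumor received test compound or vehicle. Survival was recorded in each group, and the value is the treated-group measurement divided by that of the vehicle-treated control group.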

[1] = dose: 60.0 mg/kg/injection, schedule: Q01DX005 (ip), vehicle: Klucel (hydroxypropylcellulose) (HPC)
[2] = dose: 120.0 mg/kg/injection, schedule: Q01DX005 (ip), vehicle: Klucel (hydroxypropylcellulose) (HPC)
[3] = dose: 50.0 mg/kg/injection, schedule: Q01DX009 (ip), vehicle: saline with Tween-80
[4] = dose: 100.0 mg/kg/injection, schedule: Q01DX009 (ip), vehicle: saline with Tween-80
[5] = dose: 200.0 mg/kg/injection, schedule: Q01DX009 (ip), vehicle: saline with Tween-80

Measured: T/C

Cc1ccccc1/C=C1/C(=O)C(c2ccccc2)=C1c1ccccc1
inactive: dose: 100.0 mg/kg/injection, schedule: Q01DX001 (ip), vehicle: Klucel (hydroxypropylcellulose) (HPC) 105 % of control | dose: 200.0 mg/kg/injection, schedule: Q01DX001 (ip), vehicle: Klucel (hydroxypropylcellulose) (HPC) 106 % of control | dose: 400.0 mg/kg/injection, schedule: Q01DX001 (ip), vehicle: Klucel (hydroxypropylcellulose) (HPC) 100 % of control

COc1ccn(CC2(C)CO2)c(=O)n1 (stereo unspecified)
inactive: dose: 60.0 mg/kg/injection, schedule: Q01DX005 (ip), vehicle: saline 103 % of control | dose: 120.0 mg/kg/injection, schedule: Q01DX005 (ip), vehicle: saline 106 % of control | dose: 240.0 mg/kg/injection, schedule: Q01DX005 (ip), vehicle: saline 104 % of control

O=C1CSC(c2ccc(Cl)c([N+](=O)[O-])c2)N1c1nncs1 (stereo unspecified)
inactive: [1] 99 % of control | [2] 100 % of control | dose: 240.0 mg/kg/injection, schedule: Q01DX005 (ip), vehicle: Klucel (hydroxypropylcellulose) (HPC) 97 % of control

O=C(NN(Cn1c(=S)sc2ccccc21)Cn1c(=S)sc2ccccc21)c1ccncc1
inactive: dose: 3.12 mg/kg/injection, schedule: Q01DX009 (ip), vehicle: Klucel (hydroxypropylcellulose) (HPC) 105 % of control and 98 % of control | dose: 6.25 mg/kg/injection, schedule: Q01DX009 (ip), vehicle: Klucel (hydroxypropylcellulose) (HPC) 93 % of control and 94 % of control | dose: 12.5 mg/kg/injection, schedule: Q01DX009 (ip), vehicle: Klucel (hydroxypropylcellulose) (HPC) 88 % of control and 92 % of control

COc1cccc(CN2CCCNCC2)c1
inactive: dose: 6.25 mg/kg/injection, schedule: Q01DX009 (ip), vehicle: water 93 % of control | dose: 12.5 mg/kg/injection, schedule: Q01DX009 (ip), vehicle: water 93 % of control | dose: 25.0 mg/kg/injection, schedule: Q01DX009 (ip), vehicle: water 97 % of control | dose: 50.0 mg/kg/injection, schedule: Q01DX009 (ip), vehicle: water 101 % of control

O=C(/C=C(\C(=O)c1ccccc1)c1ccccc1)c1ccccc1
inactive: dose: 50.0 mg/kg/injection, schedule: Q01DX009 (ip), vehicle: saline sonified 100 % of control | dose: 100.0 mg/kg/injection, schedule: Q01DX009 (ip), vehicle: saline sonified 100 % of control | dose: 200.0 mg/kg/injection, schedule: Q01DX009 (ip), vehicle: saline sonified 100 % of control

COc1c2c(c3c(c1OC)CCN(CC(c1ccccc1)c1ccccc1)C3)CCC2
inactive: dose: 100.0 mg/kg/injection, schedule: Q04DX002 (ip), vehicle: saline 101 % of control | dose: 200.0 mg/kg/injection, schedule: Q04DX002 (ip), vehicle: saline 100 % of control | dose: 400.0 mg/kg/injection, schedule: Q04DX002 (ip), vehicle: saline 103 % of control

COc1ccc(/C(=C/c2ccc([N+](=O)[O-])cc2)C(=O)O)cc1
inactive: dose: 50.0 mg/kg/injection, schedule: Q01DX005 (ip), vehicle: Klucel (hydroxypropylcellulose) (HPC) 105 % of control | dose: 100.0 mg/kg/injection, schedule: Q01DX005 (ip), vehicle: Klucel (hydroxypropylcellulose) (HPC) 105 % of control | dose: 200.0 mg/kg/injection, schedule: Q01DX005 (ip), vehicle: Klucel (hydroxypropylcellulose) (HPC) 105 % of control

CCCCCCSC(=O)Nc1ccc(C)c(NC(=O)SCCCCCC)c1
inactive: [3] 100 % of control | [4] 100 % of control | [5] 100 % of control

N#CCc1c(C2(c3ccncc3)OCCO2)[nH]c2ccccc12
inactive: dose: 100.0 mg/kg/injection, schedule: Q01DX001 (ip), vehicle: saline 104 % of control | dose: 200.0 mg/kg/injection, schedule: Q01DX001 (ip), vehicle: saline 113 % of control | dose: 400.0 mg/kg/injection, schedule: Q01DX001 (ip), vehicle: saline 98 % of control

CCN(CC)C(=NC(C)(C)C)c1ccccc1
inactive: dose: 3.12 mg/kg/injection, schedule: Q01DX009 (ip), vehicle: saline 101 % of control and 93 % of control and 97 % of control | dose: 6.25 mg/kg/injection, schedule: Q01DX005 (ip), vehicle: Klucel (hydroxypropylcellulose) (HPC) 107 % of control | dose: 6.25 mg/kg/injection, schedule: Q01DX009 (ip), vehicle: saline 96 % of control and 97 % of control | dose: 12.5 mg/kg/injection, schedule: Q01DX005 (ip), vehicle: Klucel (hydroxypropylcellulose) (HPC) 100 % of control | dose: 25.0 mg/kg/injection, schedule: Q01DX005 (ip), vehicle: Klucel (hydroxypropylcellulose) (HPC) 107 % of control | dose: 50.0 mg/kg/injection, schedule: Q01DX009 (ip), vehicle: saline 99 % of control

O=C1OI(O)c2ccccc21
inactive: [1] 106 % of control | [2] 106 % of control

Clc1nc(Cl)nc(N2CCCc3ccccc32)n1
inactive: [3] 89 % of control | [4] 96 % of control | [5] 93 % of control

COc1ccc(-c2ccc(OC)c(OC)c2OC)c(N)c1
inactive: dose: 100.0 mg/kg/injection, schedule: Q04DX003 (ip), vehicle: saline with Tween-80 99 % of control and 110 % of control | dose: 200.0 mg/kg/injection, schedule: Q04DX003 (ip), vehicle: saline with Tween-80 104 % of control and 110 % of control | dose: 400.0 mg/kg/injection, schedule: Q04DX003 (ip), vehicle: saline with Tween-80 114 % of control and 115 % of control

C=CC(C)(C)N1C(=O)C(C(C)=O)=C(O)C1Cc1c[nH]c2ccccc12 (stereo unspecified)
inactive: dose: 8.75 mg/kg/injection, schedule: Q01DX005 (ip), vehicle: Klucel (hydroxypropylcellulose) (HPC) 99 % of control | dose: 17.5 mg/kg/injection, schedule: Q01DX005 (ip), vehicle: Klucel (hydroxypropylcellulose) (HPC) 99 % of control | dose: 35.0 mg/kg/injection, schedule: Q01DX005 (ip), vehicle: Klucel (hydroxypropylcellulose) (HPC) 97 % of control

Nc1nc(N)nc(CNc2c(Br)cc(Br)cc2Br)n1
inactive: dose: 60.0 mg/kg/injection, schedule: Q01DX005 (ip), vehicle: saline with Tween-80 93 % of control | dose: 120.0 mg/kg/injection, schedule: Q01DX005 (ip), vehicle: saline with Tween-80 101 % of control | dose: 240.0 mg/kg/injection, schedule: Q01DX005 (ip), vehicle: saline with Tween-80 90 % of control
